Test results as given in patent US20240032539A1, “CONCENTRATED FUNGICIDE COMPOSITION OF PROTHIOCONAZOLE AND PICOXYTROBIN” (priority 2020, published 2024).
Where two headings read alike, the source gives them in different places.

What was measured:
[1] = tested on: complex of diseases in soybean; experiment: LD50 of strobilurins, populations of different locations and dates of collection; conditions: mean over locations and dates of collection
Description: Additional tests were conducted with populations with extreme values to verify the correlation of ED50 values with field efficiency and confirm this elevation in values. The same tests were installed in order to compare the most used strobilurins in soybean crops.
All estimated LD50 values were below 1 μg. mL−1, regardless of product, location and date of collection.
That said, it can be stated that the combination of triazole with greater intrinsic activity to strobilurin with the same characteristics makes OFA-T 0143/17 (prothioconazole+picoxystrobin) an excellent tool to assist in the integrated management of diseases in the soybean crop.

[2] = cited from earlier work; for Total Equi: per kg of compound, Table 2; for Consumer Eiq / Ecological Eiq / Total Eiq / Worker Eiq: for 1 kg of the compound
[3] = Eiq risk indicator of pesticides (Kovach et al.; Eiq Calculator); conditions: for Total Eiq (% of picoxystrobin): as percentage of the picoxystrobin value
Description: With all this complexity, the question that arises is: is there any risk indicator for the use of pesticides that is accurate, simple to use and easily understandable? So far, the best available option is the Eiq proposed by Kovach et al. (1992).
This indicator is calculated from a total of […] characteristics of pesticides: dermal toxicity, chronic toxicity, systemicity, toxicity to fish, leaching potential, potential for movement on the soil surface, toxicity to birds, time to degrade 50% in soil, toxicity to bees, toxicity to beneficial arthropods and time to degrade 50% on plant surface.
The total Eiq is characteristic of each active ingredient and corresponds to the average of three other more specific coefficients calculated from subgroups of the aforementioned characteristics: Eiq Ecological, Eiq for the worker and Eiq for the consumer.
The Eiq values are dimensionless and can be determined for 1 kg of the active ingredient (to compare the safety of different compounds) or per hectare treated (considers the variable effective dose of use). There are applications that do the calculation automatically such as Eiq Calculator (Cornell—CALS, 2018).

[4] = strobirulins, Table 2; cited from earlier work
[5] = cited from earlier work; for ionization: strobirulins, Table 2; for Classification (dissociation) / Dissociation Constant - Pka: triazole fungicides, Table 01
[6] = cited from earlier work; for Solubility-water: strobirulins, Table 2; for Solubility in water: triazole fungicides, Table 01
[7] = cited from earlier work; for Know or P / Log Know or Log P: strobirulins, Table 2; for Log Know (P Log) / Know P: triazole fungicides, Table 01

For `CO/C=C(/C(=O)OC)c1ccccc1Oc1cc(Oc2ccccc2C#N)ncn1` [azoxystrobin], the LD50 mean [1] is listed as 0.23 µg/mL, the “Total Equi” value [2] is listed as 23.0 Units/Kg and the “Total Eiq (% of picoxystrobin)” value ([3]; Units/Kg) is listed as 196.6%. The “Total Eiq (% of picoxystrobin)” value ([3]; Units/Mol) was 215.7%, the “Total Eiq” value ([3]; per Mol of compound, Table 2) was 9.3 Units/Mol and the RL50 in plants [4] was 7.0 days. The ionization [5] was “Non-ionizable”, the Solubility-water [6] was 6.7 mg/L or PPM and the “Know or P” value [7] was 316 dimensionless. For the same compound, the “Log Know or Log P” value [7] was 2.5 dimensionless.
In the case of `CCCCC(O)(Cn1cncn1)c1ccc(Cl)cc1Cl` (stereo not drawn) [hexaconazole], the “Classification (dissociation)” value [5] is given as “Strong acid” and the “Log Know (P Log)” value [7] is given as 3.9.
In the case of `CC1(C)CCC(Cc2ccc(Cl)cc2)C1(O)Cn1cncn1` (stereo not drawn) [metconazole], the “Classification (dissociation)” value [5] is given as “Very weak acid” and the “Log Know (P Log)” value [7] is given as 3.85.
For `CC1COC(Cn2cncn2)(c2ccc(Oc3ccc(Cl)cc3)cc2Cl)O1` (stereo not drawn) [diphenococonazole], the “Classification (dissociation)” value [5] is given as “Strong acid”, the “Dissociation Constant - Pka” value [5] is given as 1.07 and the “Log Know (P Log)” value [7] is given as 4.36.
In the case of `Fc1ccc([C@]2(Cn3cncn3)O[C@H]2c2ccccc2Cl)cc1` (racemic) [epoxiconazole], the “Classification (dissociation)” value [5] is given as “No dissociation” and the “Log Know (P Log)” value [7] is given as 3.3.
For `N#CC(CCc1ccc(Cl)cc1)(Cn1cncn1)c1ccccc1` (stereo not drawn) [fenbuconazole], the “Classification (dissociation)” value [5] is given as “No dissociation”, the Solubility in water [6] is given as 2.47 mg/L or PPM and the “Log Know (P Log)” value [7] is given as 3.79.
In the case of `CC(C)(C)C(O)/C(=C\c1ccc(Cl)cc1)n1cncn1` (stereo not drawn) [uniconazole], the “Classification (dissociation)” value [5] is given as “Very weak acid”, the “Dissociation Constant - Pka” value [5] is given as 13.07 and the Solubility in water [6] is given as 8.41 mg/L or PPM. The “Log Know (P Log)” value [7] was 3.84.
For `COC(=O)N(OC)c1ccccc1COc1ccn(-c2ccc(Cl)cc2)n1` [pyraclostrobin], the LD50 mean [1] is given as 0.21 µg/mL, the “Total Equi” value [2] is given as 23.1 Units/Kg and the “Total Eiq (% of picoxystrobin)” value ([3]; Units/Kg) is given as 197.4%. The “Total Eiq (% of picoxystrobin)” value ([3]; Units/Mol) was 208.5%, the “Total Eiq” value ([3]; per Mol of compound, Table 2) was 9.0 Units/Mol and the RL50 in plants [4] was 4.7 days. The ionization [5] was “Non-ionizable”, the Solubility-water [6] was 1.5 mg/L or PPM and the “Know or P” value [7] was 9772 dimensionless.
For `FC(F)C(F)(F)OCC(Cn1cncn1)c1ccc(Cl)cc1Cl` (stereo not drawn) [tetraconazole], the “Classification (dissociation)” value [5] is given as “Strong acid” and the “Log Know (P Log)” value [7] is given as 3.56.
For `Clc1ccc(C2(Cn3cncn3)OCCO2)c(Cl)c1` [azaconazole], the “Classification (dissociation)” value [5] is given as “Very weak base”, the “Dissociation Constant - Pka” value [5] is given as 3 and the Solubility in water [6] is given as 300 mg/L or PPM. The “Know P” value [7] was 229.1 and the “Log Know (P Log)” value [7] was 2.36.
For `Clc1ccc(C2(Cn3cncn3)CC(Br)CO2)c(Cl)c1` (stereo not drawn) [bromuconazole], the “Classification (dissociation)” value [5] is listed as “Strong acid”, the “Dissociation Constant - Pka” value [5] is listed as 2.75 and the Solubility in water [6] is listed as 48.3 mg/L or PPM. For the same compound, the “Log Know (P Log)” value [7] was 3.24.
For `CO/C=C(/C(=O)OC)c1ccccc1COc1cccc(C(F)(F)F)n1` [picoxystrobin, (E)-3-methoxy-2-{2-[6-(trifluoromethyl)-2-pyridyloxymethyl]phenyl}methyl acrylate], the LD50 mean [1] is listed as 0.18 µg/mL, the “Consumer Eiq” value [2] is listed as 5.1 and the “Ecological Eiq” value [2] is listed as 25.0. The “Total Eiq” value [2] was 11.7, the “Worker Eiq” value [2] was 5.1 and the “Total Equi” value [2] was 11.7 Units/Kg. For the same compound, the “Total Eiq (% of picoxystrobin)” value ([3]; Units/Kg) was 100.0%, the “Total Eiq (% of picoxystrobin)” value ([3]; Units/Mol) was 100.0% and the “Consumer Eiq” value ([3]; dose of 80g a.i./ha) was 0.408. The “Ecological Eiq” value ([3]; dose of 80g a.i./ha) was 2.00, the “Total Eiq” value ([3]; dose of 80g a.i./ha) was 0.936 and the “Worker Eiq” value ([3]; dose of 80g a.i./ha) was 0.408. The “Total Eiq” value ([3]; per Mol of compound, Table 2) was 4.3 Units/Mol, the “average reduction of risks for consumers, workers and the environment versus azoxystrobin” value ([3]; per kg) was 49.13% and the “average reduction of risks for consumers, workers and the environment versus pyraclostrobin” value ([3]; per kg) was 49.35%. The “average reduction of risks for consumers, workers and the environment versus trifloxystrobin” value ([3]; per kg) was 54.12%, the “total Eiq value expressed as a percentage of the value observed for azoxystrobin” value ([3]; per kg) was 50.87% and the “total Eiq value expressed as a percentage of the value observed for pyraclostrobin” value ([3]; per kg) was 50.65%. For the same compound, the “total Eiq value expressed as a percentage of the value observed for trifloxystrobin” value ([3]; per kg) was 45.88%, the RL50 in plants [4] was 6.9 days and the ionization [5] was “Non-ionizable”. The Solubility-water [6] was 3.1 mg/L or PPM, the “Know or P” value [7] was 3981 dimensionless and the “Log Know or Log P” value [7] was 3.6 dimensionless.
For `OC(Cc1ccccc1Cl)(Cn1nc[nH]c1=S)C1(Cl)CC1` (racemic) [prothioconazole, (RS)-2-[2-(1-chlorocyclopropyl)-3-(2-chlorophenyl)-2-hydroxypropyl]-2,4-dihydro1,2,4-triazole-3-thione], the “Consumer Eiq” value [2] is given as 10.5, the “Ecological Eiq” value [2] is given as 55.5 and the “Total Eiq” value [2] is given as 26.9. The “Worker Eiq” value [2] was 13.9, the “Consumer Eiq” value ([3]; dose of 96 g a.i./ha) was 1.008 and the “Ecological Eiq” value ([3]; dose of 96 g a.i./ha) was 5.33. The “Total Eiq” value ([3]; dose of 96 g a.i./ha) was 2.58, the “Worker Eiq” value ([3]; dose of 96 g a.i./ha) was 1.33 and the “Classification (dissociation)” value [5] was “Weak acid”. The “Dissociation Constant - Pka” value [5] was 6.9, the Solubility in water [6] was 22.5 mg/L or PPM and the “Know P” value [7] was 100. The “Log Know (P Log)” value [7] was 2.
For `CCCC1COC(Cn2cncn2)(c2ccc(Cl)cc2Cl)O1` (stereo not drawn) [propiconazole], the “Classification (dissociation)” value [5] is listed as “Very weak base”, the “Dissociation Constant - Pka” value [5] is listed as 1.09 and the Solubility in water [6] is listed as 150 mg/L or PPM. The “Log Know (P Log)” value [7] was 3.72.
For `CC(C)(C)C(O)(CCc1ccc(Cl)cc1)Cn1cncn1` (stereo not drawn) [tebuconazole], the “Classification (dissociation)” value [5] is listed as “Weak acid” and the “Log Know (P Log)” value [7] is listed as 3.7.
For `CCCC(Cn1cncn1)c1ccc(Cl)cc1Cl` (stereo not drawn) [penconazole], the “Classification (dissociation)” value [5] is given as “Very weak base” and the “Dissociation Constant - Pka” value [5] is given as 1.51.
In the case of `CON=C(C(=O)OC)c1ccccc1CON=C(C)c1cccc(C(F)(F)F)c1` [trifloxystrobin], the “Total Equi” value [3] is listed as 10.4 Units/Mol, the “more Eiq units required so that 10 g of the compound remained in the plant matrix, versus picoxystrobin” value ([3]; 14 days) is listed as 35.54% and the ionization [5] is listed as “Non-ionizable”. The “Know or P” value [7] was 31623 dimensionless.
In the case of `CC1(C)CCC(=Cc2ccc(Cl)cc2)C1(O)Cn1cncn1` (stereo not drawn) [triticonazole], the “Classification (dissociation)” value [5] is listed as “No dissociation” and the “Log Know (P Log)” value [7] is listed as 3.29.
For `CC(C1CC1)C(O)(Cn1cncn1)c1ccc(Cl)cc1` (stereo not drawn) [cyproconazole], the “Classification (dissociation)” value [5] is given as “No dissociation” and the “Log Know (P Log)” value [7] is given as 3.09.
In the case of `O=c1c2cc(F)ccc2nc(-n2cncn2)n1-c1ccc(Cl)cc1Cl` [fluquinconazole], the “Classification (dissociation)” value [5] is given as “Strong acid”, the “Dissociation Constant - Pka” value [5] is given as 0.9 and the “Log Know (P Log)” value [7] is given as 3.24.
